One series has as its system 293T. Description: Nucleoside uptake assay (3H-Thymidine), IC50 relative to DMSO control. It is filed as cell-based. Conditions: 293T cells; Table 17. As to the method: Nucleoside Uptake Assay (uptake). Nuceloside uptake assays were performed with using 3H-Thymidine as described in Guo et al. (2018) Nat. Chem, 11:254-63. Specific cell lines are indicated in each assay and cultured in complete growth media. Activity is scored according to the IC50 values relative to DMSO control. “Low” indicates an IC50 greater than 600 nM, “Medium” indicates an IC50 between 300 nM and 600 nM “High” indicates an IC50 less than 300 nM. “Rel.Uptake” refers to uptake activity characterization relative to a single concentration assay. “Low” indicates a response greater than 0.6 times the activity relative to DMSO, “Medium” indicates a response between 0.6 and 0.3 times the activity relative to DMSO, “High” indicates a response less than 0.3 times the activity relative to DMSO.

Series [1] is described as follows: Nucleoside uptake assay, single concentration (Rel.Uptake), response relative to DMSO; cell line indicated in each table. It is filed as cell-based. Conditions: 293 T cells, nucleoside uptake at single concentration.
The next series concerns Sprague Dawley Rats. As to the kind of experiment: Rat Renal Ischemia-Reperfusion model. Conditions: compound given 30 min prior to right nephrectomy and left renal clamping, 24 hours of reperfusion. It is filed as in vivo. On the procedure: Briefly, Sprague Dawley Rats were treated test compound 30 min prior to a right nephrectomy and with underwent clamping of the left renal clamping for 15 mins. After 24 hours of reperfusion, blood was collected to measure biomarkers for kidney damage and the kidney was removed for histology. […] SHAM indicates an animal group with right nephrectomy without ischemic injury. VE indicates vehicle. DPA indicates dipyridamole administered in a dosage of 10 mg/kg. Compound 1593 was administered at a high dosage (12 mg/kg) or a low dosage (4 mg/kg). Compound 1594 was administered at 4 mg/kg.

Series [2] is described as follows: Aqueous solubility in PBS solution. It is filed as physicochemical. The note with it: aqueous buffer. On the procedure:
Compound 1593 is synthesized according to Scheme 42. The aqueous solubility of compound 1593 and its counterpart structure without carboxylic acid substitutent, compound 1594, is shown in Table 18. Without the carboxylic acid substitutent, compound 1594 merely has a solubility of about 0.1 mg/mL in PBS solution.

Setting [3] is: read-out: solubility in PBS solution.

The structures appear in SMILES notation. In brackets after ≈: the same amount, converted by molar mass. Read-outs that look alike come from different tables or passages of the source.

In the series on 293T, `COc1ccc(CC[C@H]2OC(=O)[C@@H]3CCCCN3C(=O)C(=O)C(C)(C)COC(=O)/C=C/CCN(C)C(=O)[C@H](CC(C)C)N(C)C(=O)[C@H]3CCCN3C(=O)[C@H](Cc3ccc(OCC(=O)O)cc3)NC(=O)[C@H](c3ccccc3)NC(=O)CCC(=O)Nc3cccc2c3)cc1OC` [Compound 1593] had an IC50 of under 300 nM. Besides, the “Rel. Uptake, 293 T” value in series [1] is “High (“High” indicates a response less than 0.3 times the activity relative to DMSO)”. The “efficacy in Rat Renal Ischemia-Reperfusion model” value in the series on Sprague Dawley Rats was “efficacious”. The solubility in series [2] (PBS, read-out: Solubility) was 3500 µg/mL (≈ 2700 µM); in series [2] (setting [3]), about 3500 µg/mL (≈ 2700 µM).
`COc1ccc(CC[C@H]2OC(=O)[C@@H]3CCCCN3C(=O)C(=O)C(C)(C)COC(=O)/C=C/CCN(C)C(=O)[C@H](CC(C)C)N(C)C(=O)[C@H]3CCCN3C(=O)[C@H](Cc3ccccc3)NC(=O)[C@H](c3ccccc3)NC(=O)CCC(=O)Nc3cccc2c3)cc1OC` [Compound 1594]: the “Rel. Uptake, 293 T” value in series [1] is reported as “Low (“Low” indicates a response greater than 0.6 times the activity relative to DMSO)”. In addition, in the series with Sprague Dawley Rats, the “efficacy in Rat Renal Ischemia-Reperfusion model” value is “efficacious”. Further, the solubility is over 100 µg/mL in series [2] (PBS, read-out: Solubility) and about 100 µg/mL (≈ 81.7 µM) in series [2] (setting [3]).

These data come from US20210094933A1, “RAPAFUCIN DERIVATIVE COMPOUNDS AND METHODS OF USE THEREOF” (The Johns Hopkins University, priority 2019, published 2021).
